Reference: patent US8835644B2, “Broad spectrum benzothiophene-nitrothiazolide and other antimicrobials” (University of Virginia Patent Foundation, priority 2009, dated 2014)
Converted amounts (≈) assume the structure as drawn. Structures can show the parent of a compound that is named as a salt. Where two headings read alike, the source gives them in different places. Marks after values point to notes of the source that are not given here. Values belong to the molecule of their own block, whether it stands above or below them.

Key:
H. pylori = assay: MIC testing by broth dilution, H. pylori; type: cell-based, Helicobacter pylori
How it was run: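 Helicobacter pylori was tested using a standard broth dilution method in 96 well microplates, each well holding a standard dilution of the organism in 100 microliters of Brain Heart Infusion. Compounds started at 32 μg/ml in 200 microliters in the first well and were serially diluted from 32 to 0.06. Wells were read visually at 24 h, and the MIC was the well with no growth.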

C. jejuni = assay: MIC testing by broth dilution, C. jejuni; type: cell-based, Campylobacter jejuni
How it was run: (§1)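 Media: LB (E. coli), Trypticase Soy (S. epidermidis), BHI (C. jejuni); plank cells. C. difficile on Wilkins Chalgrin agar, anaerobic Kirby-Bauer disks, zone vs NTZ zone ratio.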

MRSA = assay: MIC testing by broth dilution, MRSA; type: cell-based, Staphylococcus aureus
How it was run: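 Values are broth-dilution MICs, defined as the well showing no growth on visual reading after 24 h; the tested range was 32 to 0.06 μg/ml, in organism-specific media (LB, Trypticase Soy, Brain Heart Infusion). The C. difficile entries come instead from anaerobic Kirby-Bauer disk zones, normalised to NTZ.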

S. epidermidis = assay: MIC testing by broth dilution, S. epidermidis plank; type: cell-based, Staphylococcus epidermidis
How it was run: as §1

[1] = tested on: PFOR (pyruvate ferredoxin oxidoreductase); assay: Direct PFOR enzyme assay; type: biochemical
Method: Representative compounds of the invention were tested in a series of assays against a series of organisms as described above. […] The organisms tested include, C. difficile, H. pylori, C. jejuni, MRSA, S. epidermidis, and E. coli. S. epidermidis and E. coli were tested in the plank and biofilm assay. A disk diffusion assay was also used for C. difficile. Direct PFOR enzyme assays were also performed. All analogues and derivatives were not tested on every organism in every type of assay (the “-” in each table means that it was not tested).

E. coli = assay: MIC testing by broth dilution, E. coli plank; type: cell-based, Escherichia coli; details: 24 h, read-out: MIC (μM) E. coli Plank
How it was run: as §1

C. difficile = assay: Disk diffusion (Kirby Bower), C. difficile; type: cell-based, Clostridium difficile; details: zone of inhibited growth as relative ratio to the zone for NTZ
How it was run: as §1

[2] = 2-amino-3,5-dinitrothiophene analogues table, read-out: MIC H. pylori
[3] = 2-amino-3,5-dinitrothiophene analogues table, read-out: MIC C. jejuni
[4] = 2-amino-3,5-dinitrothiophene analogues table, read-out: MIC MRSA
[5] = planktonic, 2-amino-3,5-dinitrothiophene analogues table, read-out: MIC S. epidermidis Plank
[6] = * biphasic initial inhibition followed by uninhibited rate, ** caused some precipitant in extract
[7] = Helicobacter pylori, read-out: MIC H. pylori
[8] = Campylobacter jejuni, read-out: MIC C. jejuni
[9] = Staphylococcus aureus, MRSA, read-out: MIC MRSA
[10] = Staphylococcus epidermidis, read-out: MIC S. epidermidis Plank
[11] = broth dilution, Brain Heart Infusion, 24 h, read-out: MIC (μM) H. pylori
[12] = broth dilution, Brain Heart Infusion, 24 h, read-out: MIC (μM) C. jejuni
[13] = broth dilution, Trypticase Soy, 24 h, read-out: MIC (μM) MRSA
[14] = broth dilution, Trypticase Soy, 24 h, read-out: MIC (μM) S. epidermidis Plank
[15] = Helicobacter pylori, 24 h, read-out: MIC (μM) H. pylori
[16] = Campylobacter jejuni, 24 h, read-out: MIC (μM) C. jejuni
[17] = Staphylococcus aureus, MRSA, 24 h, read-out: MIC (μM) MRSA
[18] = Staphylococcus epidermidis, 24 h, read-out: MIC (μM) S. epidermidis Plank

SMILES: O=C(Nc1sc([N+](=O)[O-])cc1[N+](=O)[O-])c1ccc(Br)o1 [VPC16b2023]
MIC (H. pylori; [2]): 2.1 µM (≈ 0.76 µg/mL)
MIC (C. jejuni; [3]): 2.8 µM (≈ 1.01 µg/mL)
MIC (MRSA; [4]): 33.1 µM (≈ 12 µg/mL)
MIC (S. epidermidis; [5]): 88.4 µM (≈ 32 µg/mL)
PFOR inhibition relative to nitazoxanide (=100) [1, 6]: 94** %

SMILES: O=C(Nc1sc([N+](=O)[O-])cc1[N+](=O)[O-])c1ccc(Br)s1 [VPC16b2025]
MIC (H. pylori; [2]): 2.6 µM (≈ 0.983 µg/mL)
MIC (C. jejuni; [3]): 2.6 µM (≈ 0.983 µg/mL)
MIC (MRSA; [4]): 63.5 µM (≈ 24 µg/mL)
MIC (S. epidermidis; [5]): 15.9 µM (≈ 6.01 µg/mL)
PFOR inhibition relative to nitazoxanide (=100) [1, 6]: 98** %

SMILES: O=C(Nc1sc([N+](=O)[O-])cc1[N+](=O)[O-])c1cc(C(F)(F)F)ccc1Cl [VPC16b2026, 2-Chloro-N-(3,5-dinitrothiophen-2-yl)-5-(trifluoromethyl)benzamide]
MIC (H. pylori; [7]): 0.8 µM (≈ 0.317 µg/mL)
MIC (C. jejuni; [8]): 2.5 µM (≈ 0.989 µg/mL)
MIC (MRSA; [9]): 30.3 µM (≈ 12 µg/mL)
MIC (S. epidermidis; [10]): 15.2 µM (≈ 6.01 µg/mL)
PFOR inhibition relative to nitazoxanide (=100) [1, 6]: 100%

SMILES: O=C(Nc1sc([N+](=O)[O-])cc1[N+](=O)[O-])c1cccc(C(F)(F)F)c1Cl [VPC16b2028]
MIC (H. pylori; [2]): 0.8 µM (≈ 0.317 µg/mL)
MIC (C. jejuni; [3]): 1.9 µM (≈ 0.752 µg/mL)
MIC (MRSA; [4]): 30.3 µM (≈ 12 µg/mL)
MIC (S. epidermidis; [5]): 30.3 µM (≈ 12 µg/mL)
PFOR inhibition relative to nitazoxanide (=100) [1, 6]: 113%

SMILES: NCCOc1ccccc1C(=O)Nc1sc([N+](=O)[O-])cc1[N+](=O)[O-] [VPC16b2031, 2-(2-Aminoethoxy)-N-(3,5-dinitrothiophen-2-yl)benzamide]
MIC (H. pylori; [7]): 1.9 µM (≈ 0.669 µg/mL)
MIC (C. jejuni; [8]): 1.3 µM (≈ 0.458 µg/mL)
MIC (MRSA; [9]): 82.3 µM (≈ 29 µg/mL)
MIC (S. epidermidis; [10]): 25.7 µM (≈ 9.05 µg/mL)
PFOR inhibition relative to nitazoxanide (=100) [1, 6]: 162%

SMILES: O=C(Nc1nc(Cl)c([N+](=O)[O-])s1)c1ccccc1 [VPC162087]
MIC (H. pylori; [11]): 8.8 µM (≈ 2.5 µg/mL)
MIC (C. jejuni; [12]): 7.1 µM (≈ 2.01 µg/mL)
MIC (MRSA; [13]): 112.8 µM (≈ 32 µg/mL)
MIC (S. epidermidis; [14]): 35.2 µM (≈ 9.99 µg/mL)
MIC (E. coli; broth dilution, LB medium): 112.8 µM (≈ 32 µg/mL)
Disk Diffusion (%) C. difficile (C. difficile): 66%
PFOR inhibition relative to nitazoxanide (=100) [1]: 107%

MIC (H. pylori; [11]): 5.7 µM (≈ 2 µg/mL)
MIC (C. jejuni; [12]): 34.1 µM (≈ 12 µg/mL)
MIC (MRSA; [13]): 11.4 µM (≈ 4.01 µg/mL)
MIC (S. epidermidis; [14]): 8.5 µM (≈ 2.99 µg/mL)
MIC (E. coli; broth dilution, LB medium): 91.0 µM (≈ 32 µg/mL)
PFOR inhibition relative to nitazoxanide (=100) [1]: 49** %
SMILES: O=C(Nc1nc(Cl)c([N+](=O)[O-])s1)c1cccc(C(F)(F)F)c1 [VPC162088]
Disk Diffusion (%) C. difficile (C. difficile): 76%

MIC (H. pylori; Helicobacter pylori, broth dilution, Brain Heart Infusion, 24 h, read-out: MIC (μM) H. pylori): 6.9 µM (≈ 2 µg/mL)
MIC (C. jejuni; Campylobacter jejuni, broth dilution, Brain Heart Infusion, 24 h, read-out: MIC (μM) C. jejuni): 13.8 µM (≈ 4 µg/mL)
MIC (MRSA; Staphylococcus aureus, MRSA, broth dilution, Trypticase Soy, 24 h, read-out: MIC (μM) MRSA): 110 µM (≈ 32 µg/mL)
MIC (S. epidermidis; Staphylococcus epidermidis, broth dilution, Trypticase Soy, 24 h, read-out: MIC (μM) S. epidermidis Plank): 82.8 µM (≈ 24 µg/mL)
MIC (E. coli; Escherichia coli, broth dilution, LB medium): 110 µM (≈ 32 µg/mL)
PFOR inhibition relative to nitazoxanide (=100) [1]: 93%
SMILES: O=C(Nc1nc(Cl)c([N+](=O)[O-])s1)c1cccs1 [VPC162089, N-(4-Chloro-5-nitrothiazol-2-yl)thiophene-2-carboxamide]

SMILES: NCCOc1ccsc1C(=O)Nc1ncc([N+](=O)[O-])s1 [VPC162125, 3-(2-Aminoethoxy)-N-(5-nitrothiazol-2-yl)thiophene-2-carboxamide hydrochloride]
MIC (H. pylori; [15]): 0.7 µM
MIC (C. jejuni; [16]): 11.4 µM
MIC (MRSA; [17]): 91.2 µM
MIC (S. epidermidis; [18]): 91.2 µM
MIC (E. coli; Escherichia coli): 91.2 µM
PFOR inhibition relative to nitazoxanide (=100) [1]: 137%

SMILES: NCCCc1ccccc1C(=O)Nc1ncc([N+](=O)[O-])s1 [VPC162134, 2-(3-Aminopropyl)-N-(5-nitrothiazol-2-yl)benzamide hydrochloride]
MIC (H. pylori; [15]): 2.9 µM
MIC (C. jejuni; [16]): 17.5 µM
MIC (MRSA; [17]): 93.3 µM
MIC (S. epidermidis; [18]): 93.3 µM
PFOR inhibition relative to nitazoxanide (=100) [1]: 144%
